Among the data in patent publication US10233182B2, “Substituted spirocyclic inhibitors of autotaxin” (X-Rx, Inc., priority 2014, dated 2019) are IC50 values, retold here.

Counter-ions that a name gives are not always drawn.

In general, IC50 refers to the concentration that gives 50% inhibition.

In this assay the target is Autotaxin (Homo sapiens (Human), UniProt Q13822). In words: Autotaxin LPC Cascade Assay. The class given is biochemical. The following applies: Autotaxin 5 nM, LPC 100 μM, choline oxidase/HRP/Ampliflu Red fluorescence read-out, 2% DMSO, RT; read-out: IC50 ATX Activity. The essentials: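 Choline liberated from LPC by autotaxin during 1 h, after a 10-min RT compound preincubation, was converted through choline oxidase/HRP to a fluorescent Ampliflu Red product.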
For the molecule `CC(C)[C@@H](NC(=O)c1cccc(C(F)(F)F)c1)C(=O)N1CCC2(CC1)C(=O)N(C)C(=O)N2c1ccc2[nH]ncc2c1` [Example 59, (R)—N-(1-(1-(1H-Indazol-5-yl)-3-methyl-2,4-dioxo-1,3,8-triazaspiro[4.5]decan-8-yl)-3-methyl-1-oxobutan-2-yl)-3-(trifluoromethyl)benzamide], the IC50 is less than 500 nM.

`CCc1ccc(F)c(C(=O)N[C@@H](C(=O)N2CCC3(CC2)C(=O)N(C)C(=O)N3c2ccccc2)C(C)C)c1` [Example 39, (R)-5-Ethyl-2-fluoro-N-(3-methyl-1-(3-methyl-2,4-dioxo-1-phenyl-1,3,8-triazaspiro[4.5]decan-8-yl)-1-oxobutan-2-yl)benzamide]: the IC50 is less than 500 nM.

On to `CCc1ccc(F)c(C(=O)N[C@@H](C(=O)N2CCC3(CC2)C(=O)N(C)C(=O)N3c2ccccc2)[C@H](C)OC)c1` [Example 37, 5-Ethyl-2-fluoro-N-((2R,3S)-3-methoxy-1-(3-methyl-2,4-dioxo-1-phenyl-1,3,8-triazaspiro[4.5]decan-8-yl)-1-oxobutan-2-yl)benzamide], for which the IC50 is less than 500 nM.

As for `COc1ccc(CN2C(=O)N(C)C(=O)C23CCN(C(=O)[C@H](NC(=O)c2cc(C(F)(F)F)ccc2F)C(C)C)CC3)c(Cl)c1` [Example 119, (R)—N-(1-(1-(2-Chloro-4-methoxybenzyl)-3-methyl-2,4-dioxo-1,3,8-triazaspiro[4.5]decan-8-yl)-3-methyl-1-oxobutan-2-yl)-2-fluoro-5-(trifluoromethyl)benzamide], the IC50 is less than 500 nM.

In the case of `CC(C)[C@@H](NC(=O)c1cc(C(F)(F)F)ccc1F)C(=O)N1CCC2(CC1)C(=O)N(CC1CC1)CN2c1ccc(C(=O)O)cc1` [Example 155, (R)-4-(3-(Cyclopropylmethyl)-8-(2-(2-fluoro-5-(trifluoromethyl)benzamido)-3-methylbutanoyl)-4-oxo-1,3,8-triazaspiro[4.5]decan-1-yl)benzoic Acid], the IC50 was less than 500 nM.

In the case of `CC(C)[C@@H](NC(=O)c1cc(OC(F)F)ccc1F)C(=O)N1CCC2(CC1)C(=O)N(C)C(=O)N2c1ccc2[nH]ncc2c1` [Example 64, (R)—N-(1-(1-(1H-Indazol-5-yl)-3-methyl-2,4-dioxo-1,3,8-triazaspiro[4.5]decan-8-yl)-3-methyl-1-oxobutan-2-yl)-5-(difluoromethoxy)-2-fluorobenzamide], the IC50 is less than 500 nM.

For `CC(C)[C@@H](NC(=O)c1cc(C(F)(F)F)ccc1F)C(=O)N1CCC2(CC1)C(=O)N(C)C(=O)N2c1ccc2nccn2c1` [Example 14, (R)-2-Fluoro-N-(1-(1-(imidazo[1,2-a]pyridin-6-yl)-3-methyl-2,4-dioxo-1,3,8-triazaspiro[4.5]decan-8-yl)-3-methyl-1-oxobutan-2-yl)-5-(trifluoromethyl)benzamide trifluoroacetic Acid Salt], the IC50 was less than 500 nM.

`CC(C)[C@@H](NC(=O)c1cc(C(F)(F)F)ccc1F)C(=O)N1CCC2(CC1)C(=O)N(C)C(=O)N2c1ccc2[nH]ccc2c1` [Example 185, (R)—N-(1-(1-(1H-Indol-5-yl)-3-methyl-2,4-dioxo-1,3,8-triazaspiro[4.5]decan-8-yl)-3-methyl-1-oxobutan-2-yl)-2-fluoro-5-(trifluoromethyl)benzamide]: the IC50 was less than 500 nM.

Regarding `CC(=O)N1CC(CN2C(=O)N(C)C(=O)C23CCN(C(=O)[C@H](NC(=O)c2cc(C(F)(F)F)ccc2F)C(C)C)CC3)C1` [Example 121, (R)—N-(1-(1-((1-Acetylazetidin-3-yl)methyl)-3-methyl-2,4-dioxo-1,3,8-triazaspiro[4.5]decan-8-yl)-3-methyl-1-oxobutan-2-yl)-2-fluoro-5-(trifluoromethyl)benzamide], the IC50 was no less than 1000 nM.

In the case of `CCc1ccc(F)c(C(=O)N[C@@H](C(=O)N2CCC3(CC2)C(=O)N(C)CN3c2ccc(OCC(N)=O)cc2)C(C)C)c1` [Example 169, (R)—N-(1-(1-(4-(2-Amino-2-oxoethoxy)phenyl)-3-methyl-4-oxo-1,3,8-triazaspiro[4.5]decan-8-yl)-3-methyl-1-oxobutan-2-yl)-5-ethyl-2-fluorobenzamide], the IC50 was less than 500 nM.

With `CCc1ccc(F)c(C(=O)N[C@@H](C(=O)N2CCC3(CC2)C(=O)N(C)C(=O)N3c2ccc3[nH]ncc3c2)C(C)C)c1` [Example 55, (R)—N-(1-(1-(1H-Indazol-5-yl)-3-methyl-2,4-dioxo-1,3,8-triazaspiro[4.5]decan-8-yl)-3-methyl-1-oxobutan-2-yl)-5-ethyl-2-fluorobenzamide], the IC50 was less than 500 nM.

As to `Cc1cccc(C(=O)N[C@@H](C(=O)N2CCC3(CC2)C(=O)N(CCCS(C)(=O)=O)CN3c2ccccc2)C(C)C)c1F` [Example 177, (R)-2-Fluoro-3-methyl-N-(3-methyl-1-(3-(3-(methylsulfonyl)propyl)-4-oxo-1-phenyl-1,3,8-triazaspiro[4.5]decan-8-yl)-1-oxobutan-2-yl)benzamide], the IC50 is less than 500 nM.

As for `Cc1nc2ccc(CN3C(=O)N(C)C(=O)C34CCN(C(=O)[C@H](NC(=O)c3cc(C(F)(F)F)ccc3F)C(C)C)CC4)cc2o1` [Example 118, (R)-2-Fluoro-N-(3-methyl-1-(3-methyl-1-((2-methylbenzo[d]oxazol-6-yl)methyl)-2,4-dioxo-1,3,8-triazaspiro[4.5]decan-8-yl)-1-oxobutan-2-yl)-5-(trifluoromethyl)benzamide], the IC50 was less than 500 nM.

Consider `CC(C)[C@@H](NC(=O)c1cc(C(F)(F)F)ccc1F)C(=O)N1CCC2(CC1)C(=O)N(C)C(=O)N2c1ccc(C(F)(F)F)cc1` [Example 186, (R)-2-Fluoro-N-(3-methy-1-(3-methyl-2,4-dioxo-1-(4-(trifluoromethyl)phenyl)-1,3,8-triazaspiro[4.5]decan-8-yl)-1-oxobutan-2-yl)-5-(trifluoromethyl)benzamide], for which the IC50 is less than 500 nM.

On to `CC[C@@H](C)[C@@H](NC(=O)c1cc(C)cc(F)c1)C(=O)N1CCC2(CC1)C(=O)N(C)C(=O)N2c1ccc(OC)cc1` [Example 41, 3-Fluoro-N-((2R,3R)-1-(1-(4-methoxyphenyl)-3-methyl-2,4-dioxo-1,3,8-triazaspiro[4.5]decan-8-yl)-3-methyl-1-oxopentan-2-yl)-5-methylbenzamide], for which the IC50 is less than 500 nM.

Take `CC(C)[C@@H](NC(=O)c1cc(C(F)(F)F)ccc1F)C(=O)N1CCC2(CC1)C(=O)N(C)C(=O)N2c1cc[n+]([O-])cc1` [Example 240, (R)-4-(8-(2-(2-Fluoro-5-(trifluoromethyl)benzamido)-3-methylbutanoy)-3-methyl-2,4-dioxo-1,3,8-triazaspiro[4.5]decan-1-yl)pyridine 1-oxide]: the IC50 was no less than 1000 nM.

`CC(C)[C@@H](NC(=O)c1cc(C(F)(F)F)ccc1F)C(=O)N1CCC2(CC1)C(=O)N(C)CN2c1ccc2[nH]ncc2c1` [Example 214, (R)—N-(1-(1-(1H-Indazol-5-yl)-3-methyl-4-oxo-1,3,8-triazaspiro[4.5]decan-8-yl)-3-methyl-1-oxobutan-2-yl)-2-fluoro-5-(trifluoromethyl)benzamide]: the IC50 is less than 500 nM.

For `Cc1cc(F)cc(C(=O)N[C@@H](C(=O)N2CCC3(CC2)C(=O)N(CC(=O)O)CN3c2ccccc2)C(C)C)c1` [Example 176, (R)-2-(8-(2-(3-Fluoro-5-methylbenzamido)-3-methylbutanoyl)-4-oxo-1-phenyl-1,3,8-triazaspiro[4.5]decan-3-yl)acetic Acid], the IC50 fell in the range of 500 to 1000 nM.

Turning to `CC(C)[C@@H](NC(=O)c1cc(C(F)(F)F)ccc1F)C(=O)N1CCC2(CC1)C(=O)N(C)C(=O)N2c1ccc2cn[nH]c2c1` [Example 53, (R)—N-(1-(1-(1H-Indazol-6-yl)-3-methyl-2,4-dioxo-1,3,8-triazaspiro[4.5]decan-8-yl)-3-methyl-1-oxobutan-2-yl)-2-fluoro-5-(trifluoromethyl)benzamide], the IC50 is no less than 1000 nM.

With `CC(C)[C@@H](NC(=O)c1cc(C(F)(F)F)ccc1F)C(=O)N1CCC2(CC1)C(=O)N(C)C(=O)N2Cc1ccc(C#N)cc1` [Example 88, (R)—N-(1-(1-(4-Cyanobenzyl)-3-methyl-2,4-dioxo-1,3,8-triazaspiro[4.5]decan-8-yl)-3-methyl-1-oxobutan-2-yl)-2-fluoro-5-(trifluoromethyl)benzamide], the IC50 is less than 500 nM.

Turning to `CC(C)[C@@H](NC(=O)c1cc(C2CC2)ccc1F)C(=O)N1CCC2(CC1)C(=O)N(C)C(=O)N2c1ccc(C(=O)O)cc1` [Example 222, (R)-4-(8-(2-(5-Cyclopropyl-2-fluorobenzamido)-3-methylbutanoyl)-3-methyl-2,4-dioxo-1,3,8-triazaspiro[4.5]decan-1-yl)benzoic Acid], the IC50 was less than 500 nM.

With `Cc1cccc(C(=O)N[C@@H](C(=O)N2CCC3(CC2)C(=O)N(C)CN3c2ccc(Cl)cc2)C(C)C)c1` [Example 193, (R)—N-(1-(1-(4-Chlorophenyl)-3-methyl-4-oxo-1,3,8-triazaspiro[4.5]decan-8-yl)-3-methyl-1-oxobutan-2-yl)-3-methylbenzamide], the IC50 was less than 500 nM.

With `CCN1C(=O)N(C)C(=O)C12CCN(C(=O)[C@H](NC(=O)c1cc(C(F)(F)F)ccc1F)C(C)C)CC2` [Example 123, (R)—N-(1-(1-Ethyl-3-methyl-2,4-dioxo-1,3,8-triazaspiro[4.5]decan-8-yl)-3-methyl-1-oxobutan-2-yl)-2-fluoro-5-(trifluoromethyl)benzamide], the IC50 was no less than 1000 nM.

For `CC(C)[C@@H](NC(=O)c1cc(OC(F)F)ccc1F)C(=O)N1CCC2(CC1)C(=O)N(C)C(=O)N2c1ccc(-c2nn[nH]n2)cc1` [Example 226, (R)—N-(1-(1-(4-(2H-Tetrazol-5-yl)phenyl)-3-methyl-2,4-dioxo-1,3,8-triazaspiro[4.5]decan-8-yl)-3-methyl-1-oxobutan-2-yl)-5-(difluoromethoxy)-2-fluorobenzamide], the IC50 was less than 500 nM.

In the case of `CC(C)[C@@H](NC(=O)c1cc(C(F)(F)F)ccc1F)C(=O)N1CCC2(CC1)C(=O)N(C)C(=O)N2Cc1ccn2ccnc2c1` [Example 102, (R)-2-Fluoro-N-(1-(1-(imidazo[1,2-a]pyridin-7-ylmethyl)-3-methyl-2,4-dioxo-1,3,8-triazaspiro[4.5]decan-8-yl)-3-methyl-1-oxobutan-2-yl)-5-(trifluoromethyl)benzamide], the IC50 was 500 to 1000 nM.
